Measurements from ChEMBL document CHEMBL1201862, “PubChem BioAssay data set” (2004).
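In this assay, cells in 96-well plates receive the compound at five concentrations for 48 hours. Endpoints are linearly interpolated between the surrounding concentrations. Here, GI50 denotes the concentration required for 50% inhibition of growth.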 Active and inactive are the calls of the source. Rule as the data show it: active = GI50 up to about 1.1 µM and inactive = higher.

How the values were obtained:
Assay in all cases: DTP human tumour cell line panel, 48 h
CCRF-CEM = system: CCRF-CEM
COLO 205 = system: COLO 205
EKVX = system: EKVX
HCT-116 = system: HCT-116
HT-29 = system: HT-29
IGROV-1 = system: IGROV-1
K562 = system: K562
LOX IMVI = system: LOX IMVI
MDA-N = system: MDA-N
MOLT-4 = system: MOLT-4
Malme-3M = system: Malme-3M
NCI/ADR-RES = system: NCI/ADR-RES
OVCAR-3 = system: OVCAR-3
OVCAR-4 = system: OVCAR-4
RPMI-8226 = system: RPMI-8226
SF-268 = system: SF-268
SF-295 = system: SF-295
SK-OV-3 = system: SK-OV-3
SNB-75 = system: SNB-75
UACC-257 = system: UACC-257

Measured: GI50

CC(=O)N1C(CCc2ccccc2)CC(C)(C=O)C1Cc1ccc(O[Si](C(C)C)(C(C)C)C(C)C)cc1 (stereo not given)
inactive: CCRF-CEM 1.87 µM | COLO 205 2.93 µM | EKVX 4.75 µM | HCT-116 2.55 µM | HT-29 2.86 µM | IGROV-1 4.9 µM | K562 2.72 µM | LOX IMVI 1.94 µM | MDA-N 2.39 µM | Malme-3M 14.2 µM | NCI/ADR-RES 8.81 µM | OVCAR-3 4.8 µM | OVCAR-4 3.7 µM | RPMI-8226 2.07 µM | SF-268 4.19 µM | SF-295 5.11 µM | SK-OV-3 13.4 µM | SNB-75 3.92 µM | UACC-257 5.11 µM
active: MOLT-4 1.06 µM

CCN1C[C@]2(C)CC[C@H](OC)C34C5C[C@@H]6[C@@H](OC)C[C@@](OC)(C5[C@H]6OCc5ccccc5)C(C13)[C@H](OC(C)=O)[C@@H]42 (stereo not given in full)
inactive: CCRF-CEM > 100 µM | COLO 205 75.2 µM | EKVX > 100 µM | HCT-116 > 100 µM | HT-29 > 100 µM | IGROV-1 > 100 µM | K562 > 100 µM | LOX IMVI > 100 µM | MDA-N > 100 µM | MOLT-4 73.6 µM | Malme-3M > 100 µM | NCI/ADR-RES > 100 µM | OVCAR-3 64.3 µM | OVCAR-4 > 100 µM | RPMI-8226 > 100 µM | SF-268 > 100 µM | SF-295 > 100 µM | SK-OV-3 > 100 µM | SNB-75 1.18 µM | UACC-257 45.8 µM

C=C1CC2(C[C@@H](c3ccccc3)O[C@@H](c3ccccc3)C2)OC1=O (stereo not given in full)
active: RPMI-8226 0.341 µM
inactive: CCRF-CEM 1.71 µM | COLO 205 2.03 µM | EKVX 13 µM | HCT-116 1.9 µM | HT-29 2.92 µM | IGROV-1 2.71 µM | K562 2.22 µM | LOX IMVI 1.25 µM | MDA-N 2.28 µM | MOLT-4 1.95 µM | Malme-3M 1.89 µM | NCI/ADR-RES 3.06 µM | OVCAR-3 2.36 µM | OVCAR-4 5.7 µM | SF-268 7.31 µM | SF-295 13.6 µM | SK-OV-3 14.5 µM | SNB-75 4.65 µM | UACC-257 3.35 µM

Cc1ccc(C[N+](C)(C)N)cc1C
inactive: CCRF-CEM > 10 µM | COLO 205 > 10 µM | EKVX > 10 µM | HCT-116 > 10 µM | HT-29 > 10 µM | IGROV-1 > 10 µM | K562 > 10 µM | LOX IMVI > 10 µM | MDA-N > 10 µM | MOLT-4 > 10 µM | Malme-3M > 10 µM | NCI/ADR-RES > 10 µM | OVCAR-3 > 10 µM | OVCAR-4 > 10 µM | RPMI-8226 > 10 µM | SF-268 > 10 µM | SF-295 > 10 µM | SK-OV-3 > 10 µM | SNB-75 > 10 µM | UACC-257 > 10 µM

O=C1/C(=C/c2cccs2)NC(=S)N1CN1CCCC(CO)C1 (stereo not given)
inactive: CCRF-CEM > 100 µM | COLO 205 > 100 µM | EKVX > 100 µM | HCT-116 > 100 µM | HT-29 > 100 µM | IGROV-1 > 100 µM | K562 > 100 µM | LOX IMVI > 100 µM | MDA-N > 100 µM | MOLT-4 > 100 µM | Malme-3M > 100 µM | NCI/ADR-RES > 100 µM | OVCAR-3 > 100 µM | OVCAR-4 > 100 µM | RPMI-8226 99.1 µM | SF-268 > 100 µM | SF-295 91.4 µM | SK-OV-3 > 100 µM | SNB-75 > 100 µM | UACC-257 > 100 µM

Cc1ccc(SCN2CCCCC2)cc1.O=C(Cl)c1ccc([N+](=O)[O-])cc1
inactive: CCRF-CEM 2.03 µM | COLO 205 4.86 µM | EKVX 11.8 µM | HCT-116 10.9 µM | HT-29 13.2 µM | IGROV-1 3.3 µM | K562 13.8 µM | LOX IMVI 2.97 µM | MDA-N 6.25 µM | MOLT-4 3.37 µM | Malme-3M 13.1 µM | NCI/ADR-RES 14 µM | OVCAR-3 12.9 µM | OVCAR-4 12.4 µM | RPMI-8226 5.78 µM | SF-268 5.98 µM | SF-295 16 µM | SK-OV-3 12.9 µM | SNB-75 9.42 µM | UACC-257 14.6 µM

CCCCCCCCCCOC1C(C(C)OCCCN(C)C)OC2OC3(CCCCC3)OC21 (stereo not given)
inactive: CCRF-CEM 10.7 µM | COLO 205 3.48 µM | EKVX 18.2 µM | HCT-116 13.4 µM | HT-29 2.41 µM | IGROV-1 14.3 µM | K562 3.47 µM | LOX IMVI 1.93 µM | MDA-N 4.94 µM | MOLT-4 12.9 µM | Malme-3M 15.2 µM | NCI/ADR-RES 17 µM | OVCAR-3 14.7 µM | OVCAR-4 13.6 µM | RPMI-8226 4.32 µM | SF-268 15.3 µM | SF-295 17.5 µM | SK-OV-3 18.5 µM | SNB-75 5.48 µM | UACC-257 20.8 µM
